Where two headings read alike, the source gives them in different places.
Tests used:
[1] = test system: skin irritation caused by lactic acid; assay type: in vivo, human; details: for average inhibition of cumulative irritation (Percent Inhibition): cation salt 250 mM in 7.5% lactic acid irritant composition, applied to face, vs equimolar sodium chloride control, average over trials; for Percent Inhibition (cumulative irritation): representative panels, cation 250 mM, 7.5% lactic acid; for Percent Inhibition (cumulative irritation), dose-response: lactic acid irritation protocol
Procedure: The trials were conducted in a double blind, randomized, vehicle-controlled manner. Various formulations of the invention were tested in over 150 people.
Tests were conducted in multiple panels of from 7 to 12 subjects each. Subjects were instructed not to wear any makeup or facial lotions to the clinic the day of testing. T he subjects were instructed to wash their face with Ivory bar soap in the clinic prior to application of test solutions.
Lactic acid skin-irritant compositions were formulated in an appropriate vehicle prior to application to the skin of the subjects. […] […] The test formulation was applied to a defined portion of the subject's skin, typically the face. Controls were performed by applying a corresponding formulation with an equimolar amount of sodium chloride to a contralateral portion of the subject's skin.
All test solutions (including controls) were applied in a double blind, randomized fashion using the prepared solutions as previously placed in coded vial designated for use on either the right or left side of the face (or other test area). Solutions were typically applied using a cotton swab (six strokes) or sponge applicator to the face and cheek area extending from the midline of the nose over to the center of the cheek and from the cheek bone down to the jaw line. Application was made first to the right side and then to the left.
Sensory assessment scores were recorded for each treated side of the subject's skin every minute for 15 minutes or until three consecutive scores of “zero” irritation were obtained. The following scaled scores were used for sensory assessment:
Symptom scores were cumulated, separately for the cation-treated and control-treated areas, for each individual and also for the panel as a whole. Individuals not reporting a cumulative score of at least “7” on at least one treatment area were excluded (in a blinded fashion) from further analysis in order to ascertain anti-irritant efficacy with respect to the more severely-susceptible test subjects. From a practical standpoint, scores of “0” and “1” on the above scale would be considered highly desirable for a commercial product because such a response would likely not result in a consumer ceasing to use a product. Some consumers, in fact, might view the “barely perceptible” sensations represented by a score of 1 to be an indication that a facial treatment skin care product (especially an exfoliant) was working as advertised. By contrast, irritation scores of “2”, “3” and “4” would likely often result in a consumer never purchasing the product again.

[2] = test system: skin irritation; experiment: Cation salts formulated in commercial topical cosmetic product, inhibition of skin irritation; assay type: in vivo; details: various amounts combined with Elizabeth Arden Visible Difference Refining Toner (alcohol-containing solution)
Text: Cation salts of the invention were formulated at various concentrations in various commercially available topical cosmetic products.

[3] = topical application, lactic acid induced stinging, burning, tingling, itching, erythema

## O=[N+]([O-])[O-].O=[N+]([O-])[O-].[Sn+2] [stannous nitrate]
[1]; human, in vivo
  anti-irritant activity in clinical trials (in words): particularly active as anti-irritants

## [F][Sn][F] [Stannous fluoride, stannous fluoride]
[1]
  average inhibition of cumulative irritation (Percent Inhibition): 15%
[1]; vehicle 10% EtOH
  Percent Inhibition (cumulative irritation): 17%
[2]
  inhibition of skin irritation (in words): effective to inhibit skin irritation

## [Cl][Al]([Cl])[Cl] [Aluminum chloride, aluminum chloride]
[1]
  average inhibition of cumulative irritation (Percent Inhibition): 46%
[1]; vehicle 10% EtOH
  Percent Inhibition (cumulative irritation): 43%
[1]; salt concentration 31 mM
  Percent Inhibition (cumulative irritation), dose-response: 12%
[1]; salt concentration 62 mM
  Percent Inhibition (cumulative irritation), dose-response: 54%
[1]; salt concentration 125 mM
  Percent Inhibition (cumulative irritation), dose-response: 50%
[1]; salt concentration 250 mM
  Percent Inhibition (cumulative irritation), dose-response: 42%
[1]; salt concentration 500 mM
  Percent Inhibition (cumulative irritation), dose-response: 44%
[1]; [3]
  anti-irritant activity in clinical trials (in words): particularly active as anti-irritants
[2]
  inhibition of skin irritation (in words): effective to inhibit skin irritation

## stannous chloride
[1]; 250 mM, one panel, time course and cumulative irritation
  anti-irritant efficacy in panel test (FIGS. 1-4, in words): overall efficacy of the subject formulation is clear
[1]
  average inhibition of cumulative irritation (Percent Inhibition): 50%
[1]; vehicle 33.75% H2O/33.75% Gly/25% EtOH
  Percent Inhibition (cumulative irritation): 50%
[1]; [3]
  anti-irritant activity in clinical trials (in words): particularly active as anti-irritants

## [Sn+2] [tin(II) (Sn^2+), tin(II)]
[1]; [3]
  anti-irritant activity in clinical trials (in words): effective
